“Also recorded” adds a separate entry of the source.
Experiments:
S. aureus NRS383 = test: growth inhibition kinetics; type: cell-based, Staphylococcus aureus
Protocol: Growth of S. aureus NRS383 was monitored for up to 24 h in medium alone or supplemented with DMSO or 50 μg/ml L-161, 982. After 6 h of coincubation, fresh L-161, 982 was added to growth medium (*). Data shown are representative of three independent experiments.
We next investigated the kinetics of growth inhibition kinetics by L-161, 982 against S. aureus and drug stability. The minimum inhibitory concentration (MIC) of L-161, 982 against planktonic S. aureus was 50 μg/ml while the […] was 100 μg/ml. […] To address whether the loss of inhibition was due to drug degradation over time (half-life), or to adaptation of S. aureus cells to L-161, 982, fresh L-161, 982 (50 μg/ml) was added during the co-incubation.

S. aureus strain NRS383 = test: effect of exogenous thymidine on antibacterial activity; type: cell-based, Staphylococcus aureus; settings: 50 μg/ml, 200 μg/ml thymidine
Protocol: S. aureus strain NRS383 was grown in cation-adjusted Mueller-Hinton II broth alone (control), with 50 μg/ml of L-161, 982 or with 40 μg/ml of SXT (positive control)±200 μg/ml of thymidine. Cultures were incubated at 37° C. non-shaking and aliquots were removed at various time points and cultured for growth (CFU). Results are expressed as % of control at each time point. Mean values from two independent experiments are shown.
Effect of exogenous thymidine on antibacterial activity of L-161, 982. S. aureus was cultured to mid-log phase in cation-adjusted Mueller-Hinton II broth with shaking at 37° C. Cultures were further diluted to yield a final concentration of 5×10^5 cells/ml. and treated with drugs alone or in combination with 200 μg/ml of thymidine (Sigma). Drugs were L-161, 982 (50 μg/ml) or 40 μg/ml of trimethoprim-sulfamethoxazole (SXT) at a ratio of 1:19 (2 μg/ml of trimethoprim and 38 μg/ml of sulfamethoxazole; Sigma) as a positive control. Cultures were incubated at 37° C. without shaking and aliquots were removed at t(0), 2, 4, 6, and 24 hours. CFUs were enumerated by plating various dilutions on TSA plates and incubating at 37° C. for 24 hours. Results were normalized to negative control cultures containing no drug at each time point.

S. aureus = test: cytoplasmic leakage assay (OD260); type: cell-based, Staphylococcus aureus; settings: 50 μg/ml
Protocol: S. aureus was grown shaking at 37° C. in PBS alone, with 50 μg/ml L-161, 982 or with 4 μg/ml Chlorhexidine (positive control). The appearance of nucleic acid in culture supernatants was measured by OD260 at the indicated times. Data are expressed as change in absorbance at 260 nm compared to control (AA260). Data presented is cumulative of two independent experiments.
Cytoplasmic leakage assay. Cytoplasmic leakage assays were performed as previously described with modifications (11). Briefly, S. aureus was cultured to mid-log phase in TSB with shaking at 37° C. Bacteria were then harvested and resuspended in PBS to a concentration of ˜108/ml. Cultures were treated with L-161,982 (50 μg/ml) or Chlorhexidine (4 μg/ml), a positive control, and incubated at 37° C. with shaking. Culture supernatants were monitored over time for cytoplasmic leakage via OD260 measurements using a spectrophotometer (Biomate 3S, Thermo Scientific). For this, aliquots were removed at 0.5, 1, 2, and 3 hours and centrifuged for 5 min at 10,000×g at room temperature to remove cellular debris before taking OD260 measurements. Negative control cultures containing no drug were used to calculate change in absorbance (AA260) at each time point.

S. aureus strain 43300 = test: staphyloxanthin assay; type: cell-based, Staphylococcus aureus
Protocol: Pigment (staphyloxanthin) levels were measured from cultures grown in Mueller-Hinton broth+/−L-161, 982 at 37° C. for 24 h. A) Macroscopic analysis of S. aureus pigment production. B) Pigment was extracted in methanol and optical density measured at 450 nm. Data shown are representative of two independent experiments. *** p<0.001 control vs. drug-treated.
Strains and growth conditions. The methicillin-resistant S. aureus strain NRS383 was obtained from the Network on Antimicrobial Resistance in S. aureus (NARSA) data bank. As NRS383 has little or no hemolytic activity or pigmentation, S. aureus strain 43300 (ATCC) was used for the hemolysis and staphyloxanthin assays. Frozen stocks were obtained at −80° C. and streaked onto trypticase soy agar (TSA) plates at 37° C. prior to use. A single colony was transferred to 10 ml of trypticase soy broth (TSB) and shaken at 37° C. overnight. On the following day, the overnight culture was diluted 1:100 in fresh growth medium and shaken at 37° C. for 3 h to obtain cells in mid-log growth phase.
Staphyloxanthin Assay. S. aureus was diluted 100-fold in 50 ml of TSB containing 50 or 100 μg/ml of L-161,982 and cultured shaking at 37° C. for 48 h. Control cultures were grown in broth alone. […] Cells from each culture were counted and normalized. […] Optical densities of supernatants were measured at 465 nm using a spectrophotometer.

[1] = 10 mg/kg body weight; cited from earlier work

For `CCCCc1nn(-c2ccccc2C(F)(F)F)c(=O)n1Cc1ccc(-c2ccccc2S(=O)(=O)NC(=O)c2sccc2C)cc1` [L-161, 982, N-[[4′-[[3-Butyl-1,5-dihydro-5-oxo-1-[2-(trifluoromethyl)phenyl]-4H-1,2,4-triazol-4-yl]methyl][1,1′-biphenyl]-2-yl]sulfonyl]-3-methyl-2-thiophenecarboxamide], the “inhibition when fresh L-161, 982 is added during co-incubation” value (S. aureus NRS383; 50 μg/ml, fresh 50 μg/ml after 6 h) was “maintained inhibition over a 24 h period”, the “duration of inhibitory effect on S. aureus” value (S. aureus NRS383; at the MIC of 50 μg/ml) was no more than 8 h and the “effect of exogenous thymidine on growth inhibition” value (S. aureus strain NRS383) was “did not reverse; also recorded: no effect”. The “OD260 values of culture supernatants” value (S. aureus) was “did not increase”, the “pigmentation (staphyloxanthin)” value (S. aureus strain 43300) was “loss of yellow pigmentation” and the toxic effects [1] was “no apparent toxic effects”.

— patent publication US20200352912A1, “ANTIMICROBIAL COMPOSITIONS AND METHODS OF USING THE SAME” (The Board Of Supervisors Of Louisiana State University And …, priority 2018, published 2020)
